Values quoted from earlier work as cited in US20140348811A1, “COMPOSITIONS COMPRISING SUGAR-CYSTEINE PRODUCTS” (MAX INTERNATIONAL, LLC, priority 2011, published 2014).

Legend:
glutathione levels = conditions: mice, 8 mmol/kg i.p.
[1] = tested on: mice exposed to cyclophosphamide; conditions: 8 mmol/kg
[2] = tested on: irradiation-induced bowel injury; conditions: mice, 1 g/kg
[3] = tested on: acetaminophen hepatic and renal toxicity; conditions: mice, 2 g/kg
[4] = healthy humans, orally 8-10 g per day
[5] = administered directly to humans, wide dosage ranges
ATP levels = conditions: dogs subjected to ischemia, about 3 g/day for at least 5 days

Row | SMILES | increased glutathione levels, heart (glutathione levels; heart) [times] | increased glutathione levels, muscle tissue (glutathione levels; muscle tissue) [times] | delivery of protective amounts of cysteine [1] | protection against irradiation-induced bowel injury [2] | protection against acetaminophen hepatic and renal toxicity [3] | exercise capacity [4] | toxicity [5] | ATP levels (ATP levels)
1 | O=C(O)[C@@H]1CSC(C(O)C(O)C(O)CO)N1 (stereo partly drawn) [RibCys, 2(R,S)-D-ribo-(1′,2′,3′,4′-tetrahydroxybutyl)thiazolidine-4(R)-carboxylic acid] | 1.5 | 2.5 | deliver effective protective amounts of cysteine | protect mice against irradiation-induced bowel injury | protect mice against acetaminophen hepatic and renal toxicity |  |  | 
2 | O=C[C@H](O)[C@H](O)[C@H](O)CO [ribose] |  |  |  |  |  | increase exercise capacity | essentially non-toxic | effectively restored and maintained ATP levels
